As usually defined, the melting point is the temperature of the solid-liquid transition. In the case of `O=C(O)c1ccc(-n2nc(-c3cccc(O)c3O)nc2-c2ccccc2O)cc1` [Example 1, 4-[3-(2,3-Dihydroxy-phenyl)-5-(2-hydroxy-phenyl)-[1,2,4]triazol-1-yl]benzoic Acid], the melting point is 223 to 226 °C.
